Patent publication US20260216374A1, “POU5F1B INHIBITORS” (ECOLE POLYTECHNIQUE FEDERALE DE LAUSANNE (EPFL), priority 2023, published 2026)
Entries after “also recorded” stand apart in the source; their conditions may differ. Residues, ends and D or L forms follow the SMILES beside them. *: point of attachment. Cbz = O=C(OCc1ccccc1)*

Tests used:
Assay type in all cases: cell-based, human
[1] = system: POU5F1B; test: Radiolabelling pulse-chase experiment to determine POU5F1B half-life; conditions: POU5F1B-overexpressing SW480 cells; ROCK inhibitors 20 μM 24 hours; MG132 10 μM 3 hours
Procedure: Radiolabelling experiment to determine POU5F1B half-life. POU5F1B-overexpressing SW480 cells treated for 24 hours with capivasertib (20 μM), oxa-06 (20 μM) and Y-27632 (20 μM) ROCK inhibitors, and 3 hours with MG132 (10 μM) proteasome inhibitor, were washed with methionine/cysteine-free medium, incubated for a 20-min pulse at 37° C. with 50 μCi/ml [35S]methionine/cysteine (Hartman Analytics), washed, and further incubated for different times at 37° C. in complete medium with a 10-fold excess of nonradioactive methionine and cysteine. POU5F1B protein was HA-immunoprecipitated, eluted and loaded in SDS-PAGE gels, and autoradiographies were quantified using the Typhoon Imager (Image QuantTool, GE healthcare).

[2] = system: POU5F1B-DCK; test: Dose response assay, BVdU survival of POU5F1B-DCK-overexpressing SW480 cells (POU5F1B-DCK degradation); conditions: 0.39-25 μM compound, 500 μM BVdU, reading at 96 h and 120 h
Procedure: Dose response assays. POU5F1B-DCK-, DCK-overexpressing, and wild type SW480 cells were seeded in 96-well plates at a cell density of 2,000 cells/well in 100 μl of media. At the same time of cell seeding, 100 μM Capivasertib, OXA-06 and Laurocapram dissolved in DMSO were diluted in medium and 20 μl were dispensed in the 96-wells to achieve final concentrations of 0.39, 0.78, 1.56, 3.12, 6.25, 12.5 and 25 μM, keeping the final concentration of DMSO at 0.2% in each well. The next day, 500 μM BVdU (Brivudine H27853, Thermo Fisher) was added in all wells except for non-treated ones. Plate reading was done at 96 h and 120 h post BvDU treatment by measuring fluorescence after incubating the cells with PrestoBlue™ (A13262, Invitrogen) for 30 min.

[3] = system: POU5F1B; test: Immunoprecipitation of HA-tagged POU5F1B followed by Western blot with phosphoserine-specific antibody; conditions: HA-tagged POU5F1B overexpressed in SW480 cells
Procedure: Immunoprecipitation. Cells were washed three times PBS, lysed 30 min at 4° C. in the following Buffer (0.5% Nonidet P-40, 500 mM Tris pH 7.4, 20 mM EDTA, 10 mM NaF, 2 mM benzamidin and protease inhibitor cocktail (Roche)), and centrifuged 3 min at 5000 rpm. Supernatants were subjected to preclearing with mouse IgG-agarose beads (Sigma A0919) prior immunoprecipitation reaction. Supernatants were incubated overnight with anti HA-agarose beads (Sigma A2095). Similar elution volumes and protein quantities, for the IPs and the inputs, respectively, were submitted to SDS-PAGE and analyzed by immunoblotting using anti-ubiquitin […] (Santa Cruz Biotechnology sc-8017, 1:1,000), HRP-conjugated anti-HA (clone 3F10 Roche 12013819001, 1:1,000), anti-phosphoserine ([…], Sigma) and HRP-conjugated anti-mouse antibody.

[4] = system: POU5F1B; test: Immunofluorescence of HA-tagged POU5F1B localization in SW480 cells; conditions: TAK-243 at 1 μM for 5 hours
Procedure: Immunofluorescence. Cell lines were plated on glass coverslips into 24-well plates and cultured for 3 days up to 70% confluence in 500 ng ml^−1 doxycycline-containing medium. When needed, cells were treated with TAK-243, inhibitor of the ubiquitin activating enzyme, at 1 μM for 5 hours. Growth medium was refreshed (1 ml) prior a 15 min fixation with 1 ml 8% paraformaldehyde (PFA) added dropwise. Cells were washed three times with PBS, permeabilized with 0.1% saponin PBS for 20 min, and blocked with 1% BSA 0.1% saponin PBS for 30 min before incubation with anti-HA (bioLegend, Covance catalog #MMS-101P, 1:1,000) antibody in 1% BSA 0.1% saponin PBS 2 h at room temperature (RT) under agitation. Samples were washed three times with PBS and incubated with Alexa 647-conjugated (A647) anti-mouse antibody (1:1,000) in 1% BSA 0.1% saponin PBS for 40 min at RT. Three final washes were performed before mounting the slides in Vectashield with DAPI (Vector Laboratories). Images were acquired on a ZEISS LSM 700 confocal microscopy and analyzed with Fiji software.

| SMILES | half-life of POU5F1B (pulse-chase) [1] | POU5F1B(-DCK) degradation, read as cell survival after BVdU treatment [2] | wild type POU5F1B phosphoserine signal [3] | POU5F1B subcellular localization [4] |
| --- | --- | --- | --- | --- |
| CC(C)C[C@@H](C=O)NC(=O)[C@H](CC(C)C)NC(=O)[C@H](CC(C)C)NC(=O)OCc1ccccc1 [MG132] (Cbz-Leu-Leu-Leu-aldehyde) | stabilized | – | – | – |
| Fc1ccccc1CNCc1ccc(-c2ccnc3[nH]ccc23)cc1 [OXA-06] | reduced | degraded | decreases | – |
| NS(=O)(=O)OC[C@H]1C[C@@H](Nc2ccnc3cc(-c4cccc(SC(F)(F)F)c4)nn23)[C@H](O)[C@@H]1O [TAK-243] | – | – | – | triggers the re-localization of POU5F1B to the nucleus; also recorded: re-localization from the cytoplasm to the nucleus |
| C[C@@H](N)[C@H]1CC[C@H](C(=O)Nc2ccncc2)CC1 [Y-27632] | reduced | – | decreases | – |
| NC1(C(=O)N[C@@H](CCO)c2ccc(Cl)cc2)CCN(c2nc[nH]c3nccc2-3)CC1 [capivasertib] | reduced | degraded | decreases | – |
| CCCCCCCCCCCCN1CCCCCC1=O [laurocapram] | – | degraded | – | – |
